Measured values published in patent EP2196204A1 (priority 2007, dated 2009).

Test system: DU-145
Assay type: cell-based, human

## CC(=O)O[C@H]1C(=O)[C@@]2(C)[C@H]([C@H](OC(=O)c3ccccc3)[C@]3(O)C[C@H](OC(=O)[C@H](O)[C@@H](NC(=O)c4ccccc4)c4ccccc4)C(C)=C1C3(C)C)[C@]1(OC(C)=O)CO[C@@H]1C[C@@H]2O [Taxol]
  Cell survival rate: 63.88%
